Results taken from the supplement of paper PMC8024199.
± gives the standard deviation of the averaged measurements.

How the values were obtained:
Assay in all cases: drug sensitivity score (DSS) (DSS score); higher = more sensitive (stronger growth inhibition); extreme values may be limits of the assay
[1] = test system: Ba/F3 P210-BCR-ABL1 RUNX1-/- (mouse)
Procedure, shortened: (§1)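 Mouse Ba/F3 cells carrying P210-BCR-ABL1, CRISPR/Cas9-edited at runx1 exon 4 or edited-control clones, were screened against a 528-compound library on pre-printed 384-well plates. Each compound ran at five concentrations spanning a 10,000-fold range, with 10,000 cells per well in RPMI with 10% FBS for 72 h at 37 °C and 5% CO2. CellTiter-Glo luminescence was scaled between vehicle and positive-control wells. A drug sensitivity score summarised each dose-response, averaged over two replicates.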

[2] = test system: Ba/F3 P210-BCR-ABL1 RUNX1wt/wt control (mouse)
Procedure, shortened: as §1

[3] = test system: Ba/F3 P210-BCR-ABL1 RUNX1-/mut (mouse)
Procedure, shortened: as §1

| SMILES | drug sensitivity score [1] | drug sensitivity score [2] | drug sensitivity score [3] |
| --- | --- | --- | --- |
| Cc1cc(OCc2nnc(SC3CCCC3)n2-c2cccnc2)ccc1-c1ccc(S(C)(=O)=O)cc1 [NMS-873] | 16.3 ± 1.6 | 22.2 ± 0.71 | 14.7 ± 1.1 |
| COc1ccc(-c2ccc3ncc4c(c3c2)n(-c2ccc(N3CCNCC3)c(C(F)(F)F)c2)c(=O)n4C)cn1 [NVP-BGT226] | 22.4 ± 2.3 | 14.5 | 23.1 ± 1.4 |
| Cc1ccc(C(=O)Nc2cccc(C(F)(F)F)c2)cc1Nc1nc(-c2cccnc2)nc2c1cnn2C [NVP-BHG712] | 7.45 ± 0.35 | 5.4 ± 0.42 | 5.15 ± 0.071 |
| COc1cc2c(cc1OC(C)C)[C@H](c1ccc(Cl)cc1)N(c1ccc(N(C)C[C@H]3CC[C@H](N4CCN(C)C(=O)C4)CC3)cc1)C(=O)C2 [NVP-CGM097] | 8.7 ± 0.71 | 6.3 ± 0.28 | 8.8 ± 3 |
| CN[C@@H](C)C(=O)N[C@H](C(=O)N1CCC[C@H]1c1nc(C(=O)c2ccc(F)cc2)cs1)C1CCCCC1 [NVP-LCL161] | 26.4 ± 4.4 | 23.6 ± 2.8 | 7.6 ± 8.5 |
| Cn1c(Nc2ccc(C(F)(F)F)cc2)nc2cc(Oc3ccnc(-c4ncc(C(F)(F)F)[nH]4)c3)ccc21 [NVP-RAF265] | 2.5 ± 1.8 | 0 | 0 |
| CC(=O)c1cc2c(o1)C(=O)c1ccccc1C2=O [Napabucasin] | 17.4 ± 0.14 | 11.1 ± 2.5 | 19.4 ± 3 |
| CN1C(=O)N[C@H](Cc2c[nH]c3c(Cl)cccc23)C1=O [Necrostatin 2] | 0 | 0 | 0 |
| O=c1ncn2nc(Sc3ccc(F)cc3F)ccc2c1-c1c(Cl)cccc1Cl [Neflamapimod] | 1.9 ± 0.71 | 0 | 0.85 ± 1.2 |
| CCOc1cc2ncc(C#N)c(Nc3ccc(OCc4ccccn4)c(Cl)c3)c2cc1NC(=O)/C=C/CN(C)C [Neratinib] | 2.35 ± 1.5 | 0 | 1.5 ± 2.1 |
| COC(=O)c1ccc2c(c1)NC(=O)/C2=C(\Nc1ccc(N(C)C(=O)CN2CCN(C)CC2)cc1)c1ccccc1 [Nintedanib] | 17.4 | 5.4 ± 0.14 | 8.15 ± 4.6 |
| NC(=O)c1cccc2cn(-c3ccc([C@@H]4CCCNC4)cc3)nc12 [Niraparib] | 7.8 ± 0.99 | 2.7 ± 0.71 | 8.15 ± 3.3 |
| CC(O)c1cc(C(=O)N[C@@H](C)Cn2ccc(-c3ccc(C#N)c(Cl)c3)n2)n[nH]1 (stereo partly drawn) [ODM-201] | 2.55 ± 0.071 | 0 | 2.05 ± 1.9 |
| CC(=O)c1cnc2ccc(-c3cc(Cl)c(O)c(Cl)c3)nc2c1N[C@H]1CC[C@H](CN(C)C)CC1 [OTS167] | 22.1 ± 0.78 | 17 ± 0.42 | 20.4 ± 0.92 |
| C=CC(=O)Nc1cccc(Oc2nc(Nc3ccc(N4CCN(C)CC4)cc3)nc3ccsc23)c1 [Olmutinib] | 0.65 ± 0.92 | 0 | 0.45 ± 0.64 |
| COC(=O)C[C@](O)(CCCC(C)(C)O)C(=O)O[C@@H]1C(OC)=C[C@]23CCCN2CCc2cc4c(cc2[C@H]13)OCO4 [Omacetaxine] | 33.8 ± 2.5 | 28.8 ± 0.92 | 35.4 ± 3.7 |
| CC1(C)CC[C@]2(NC(=O)C(C)(F)F)CC[C@]3(C)[C@H](C(=O)C=C4[C@@]5(C)C=C(C#N)C(=O)C(C)(C)[C@@H]5CC[C@]43C)[C@@H]2C1 [Omaveloxolone] | 22.9 ± 0.28 | 17.2 ± 0.14 | 22.4 ± 0.78 |
| COc1ncc(-c2ccc3nccc(-c4ccnnc4)c3c2)cc1NS(=O)(=O)c1ccc(F)cc1F [Omipalisib] | 12.3 ± 1.4 | 7.8 ± 0.28 | 11.9 ± 3.4 |

| SMILES | drug sensitivity score [1] | drug sensitivity score [2] | drug sensitivity score [3] |
| --- | --- | --- | --- |
| CC(C)c1cc(C(=O)N2Cc3ccc(CN4CCN(C)CC4)cc3C2)c(O)cc1O [Onalespib] | 19.1 ± 2.9 | 14.6 ± 0.21 | 17.8 ± 1.1 |
| COC[C@H](NC(=O)c1cnc(C)s1)C(=O)N[C@@H](COC)C(=O)N[C@@H](Cc1ccccc1)C(=O)[C@@]1(C)CO1 [Oprozomib] | 22.2 ± 1.3 | 19.2 ± 0.35 | 20.5 ± 1.6 |
| CNC(=O)c1ccc2cc([C@@]3(O)CCn4cncc43)ccc2c1 [Orteronel] | 0 | 0 | 0 |
| C=CC(=O)Nc1cc(Nc2nccc(-c3cn(C)c4ccccc34)n2)c(OC)cc1N(C)CCN(C)C [Osimertinib] | 5.6 ± 0.28 | 1.25 ± 1.2 | 5.6 ± 0.57 |
| O=C(O)C(=O)O.[NH-][C@@H]1CCCC[C@H]1[NH-].[Pt+2] [Oxaliplatin] | 29 ± 0.14 | 25.85 ± 0.21 | 28.6 ± 0.71 |
| C=CCc1cccc(/C=N/NC(=O)CN2CCN(Cc3ccccc3)CC2)c1O [PAC-1] | 4.95 ± 0.21 | 0.15 ± 0.21 | 4.65 ± 0.78 |
| O=C(Nc1cccnc1)N1CCC(Cc2cccc(Oc3ccc(C(F)(F)F)cn3)c2)CC1 [PF-3845] | 2.15 ± 0.64 | 2.1 ± 0.14 | 1.9 ± 2.7 |
| COc1ccccc1S(=O)(=O)Nc1ccc2c(c1)CN(C)C(=O)N2 [PFI-1] | 16 ± 2.8 | 9.35 ± 0.071 | 15.9 ± 3.9 |
| CN1CCN(c2cc(C(=O)Nc3ccc4c(c3)-c3c(c(C(N)=O)nn3-c3ccc(F)cc3)CC4)c(Cl)cn2)CC1 [PHA 408] | 10.2 ± 1.1 | 7.4 ± 0.57 | 8.95 ± 1.1 |
| O=C(Nc1cc(Cl)cc2c1[nH]c1cnccc12)c1cccnc1 [PS-1145] | 0.4 ± 0.57 | 0 | 0.7 ± 0.99 |
| COc1cc(Br)c(Nc2nc(-c3c(C)nc4ncccn34)cs2)c(Br)c1 [PTC-209] | 9.05 ± 2.6 | 7.5 ± 0.14 | 7.8 ± 2.4 |
| C1=N/C2=N/c3ccc(OCCN4CCCC4)c(c3)COC/C=C/COCc3cccc(c3)C(=C1)N2 [Pacritinib] | 13.8 ± 1.6 | 7 ± 0.14 | 10.8 ± 2.6 |
| CC(=O)c1c(C)c2cnc(Nc3ccc(N4CCNCC4)cn3)nc2n(C2CCCC2)c1=O [Palbociclib] | 11.4 ± 1.3 | 2.25 ± 0.21 | 8.85 ± 1.1 |
| COc1ccc(COc2cc3oc(=O)c4cc(C(C)O)ccc4c3cc2OC)cc1 (stereo not drawn) [Palomid-529] | 0.05 ± 0.071 | 0.4 ± 0.42 | 1.7 ± 2.4 |
| Nc1nc2[nH]cc(CCc3ccc(C(=O)N[C@@H](CCC(=O)O)C(=O)O)cc3)c2c(=O)[nH]1 [Pemetrexed] | 27.8 ± 1.6 | 26.6 ± 0.42 | 27 ± 0.71 |
| CCCCCCCCCCCCCCCCCCOP(=O)([O-])OC1CC[N+](C)(C)CC1 [Perifosine] | 0 | 0 | 0 |
| NS(=O)(=O)OC[C@@H]1C[C@@H](n2ccc3c(N[C@H]4CCc5ccccc54)ncnc32)C[C@@H]1O [Pevonedistat] | 16.1 ± 2.4 | 7.65 ± 0.21 | 15.4 ± 2 |
| FC(F)(F)c1ccc(CNc2ccc(Cc3c[nH]c4ncc(Cl)cc34)cn2)cn1 [Pexidartinib] | 0.05 ± 0.071 | 0.1 ± 0.14 | 0.1 ± 0.14 |
